“And” between values parts separate entries of the source, which are not always exact repeats. Equal values may be shown once.
Key:
Assay type in all cases: cell-based
[1] = biological target: T1, EGFR(WT)/SHC1 (Homo sapiens, UniProt P00533); assay: SIMPL2 assay EGFR(WT)/SHC1; details: for SIMPL2 signal, WT (Fig. 3D): replicates 1-4
T1 construct: β10-IN (tNLuc β10 peptide + GP41-1 split intein N fragment) (C); V5; expressed in transfected cells

[2] = biological target: T2, EGFR(L858R)/SHC1 (Homo sapiens, UniProt P00533, L858R); assay: SIMPL2 assay EGFR(L858R)/SHC1; details: for SIMPL2 signal, L858R (Fig. 3D): replicates 1-4
T2 construct: β10-IN (tNLuc β10 peptide + GP41-1 split intein N fragment) (C); V5; expressed in transfected cells

[3] = biological target: T3, MDM2/MDM4 interaction (Homo sapiens, UniProt O15151+Q00987); assay: SIMPL2 assay MDM2/MDM4; details: for SIMPL2 signal, MDM2/MDM4 (Fig. 4A): replicates 1-4
T3 construct: β10-IN (tNLuc β10 peptide + GP41-1 split intein N fragment) (C); V5; IC-β9 (GP41-1 split intein C fragment + tNLuc β9 peptide) (N); FLAG; expressed in transfected cells
T3 sequence (Q00987 whole entry, the tested form may be a part): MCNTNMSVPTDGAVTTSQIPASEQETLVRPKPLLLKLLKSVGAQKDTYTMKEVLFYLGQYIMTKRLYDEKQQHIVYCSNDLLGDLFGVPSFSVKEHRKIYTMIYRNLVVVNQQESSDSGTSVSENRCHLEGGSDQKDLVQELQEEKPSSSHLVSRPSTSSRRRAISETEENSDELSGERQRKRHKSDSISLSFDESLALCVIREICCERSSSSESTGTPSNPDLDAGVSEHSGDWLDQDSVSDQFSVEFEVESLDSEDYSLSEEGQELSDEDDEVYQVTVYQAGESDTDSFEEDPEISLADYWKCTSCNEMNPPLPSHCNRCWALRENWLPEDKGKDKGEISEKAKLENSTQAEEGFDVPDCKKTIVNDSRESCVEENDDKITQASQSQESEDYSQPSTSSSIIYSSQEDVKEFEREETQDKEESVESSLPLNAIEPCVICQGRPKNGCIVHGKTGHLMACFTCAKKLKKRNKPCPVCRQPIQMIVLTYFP
T3 sequence (O15151 whole entry, the tested form may be a part): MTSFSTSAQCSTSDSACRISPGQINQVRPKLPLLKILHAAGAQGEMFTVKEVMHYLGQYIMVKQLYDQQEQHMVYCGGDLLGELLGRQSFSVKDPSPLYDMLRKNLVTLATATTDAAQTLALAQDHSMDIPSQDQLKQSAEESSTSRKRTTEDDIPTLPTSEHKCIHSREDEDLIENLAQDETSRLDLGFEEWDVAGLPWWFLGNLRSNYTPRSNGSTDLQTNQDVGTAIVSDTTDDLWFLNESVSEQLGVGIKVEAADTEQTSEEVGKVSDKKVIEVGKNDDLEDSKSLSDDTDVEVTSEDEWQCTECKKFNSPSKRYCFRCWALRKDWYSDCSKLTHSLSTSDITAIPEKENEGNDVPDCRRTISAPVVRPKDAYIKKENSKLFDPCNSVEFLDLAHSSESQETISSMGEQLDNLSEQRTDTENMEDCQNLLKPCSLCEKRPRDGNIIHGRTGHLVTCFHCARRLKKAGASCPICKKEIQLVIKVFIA
Experimental: We next tested the system with molecular glues, which are small molecule compounds that induce target protein interaction. […] To clarify, the two protein molecules are anchored together through a pair of dimerized RO-5963 molecules. […] Therefore, its binding kinetics display a monophasic change.
Figure 4 Evaluation of SIMPL2 as a drug discovery tool using molecular glue and PROTACs. […] Samples were measured and normalized as described in Materials and Methods. […] The cells were then subjected to SIMPL2 luciferase measurement, and the raw values are plotted.
Stable cells of target protein pair were created using Cas9 CRISPR. To characterize PPI modulators, the cells were seeded in 384 well plate (10,000 cells/well) and incubated for 5 h. […] Average signal of wells without either deoxycycline or compound treatment was used as blank or ‘floor’ signal (SF). The average signal of wells with deoxycycline treatment but without compound treatment was used as maximal interaction or ‘ceiling’ (SC). SIMPL2 reading of each sample (Ssample) was normalized according to the formula S^*sample = (Ssample– SF)/(SC– SF) x 100%, in which S^*sample stands for normalized signal. The normalized data of inhibitor experiments were fitted into a four-parameter inhibitor-response model.

[4] = biological target: T4, control (Homo sapiens, UniProt P01116, G12C); assay: SIMPL2 assay, control of Fig. 3B-D; details: replicates 1-4
T4 construct: IC-β9 (GP41-1 split intein C fragment + tNLuc β9 peptide) (N); FLAG; expressed in transfected cells
T4 sequence (P01116 1-185 isoform P01116-2 G12C limits assumed): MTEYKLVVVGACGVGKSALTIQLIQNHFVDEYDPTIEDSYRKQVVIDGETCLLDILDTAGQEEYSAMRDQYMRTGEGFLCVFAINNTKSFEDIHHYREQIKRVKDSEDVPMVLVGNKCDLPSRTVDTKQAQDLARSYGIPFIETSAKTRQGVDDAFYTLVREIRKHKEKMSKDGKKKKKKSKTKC

## Cn1cnc2c(F)c(Nc3ccc(Br)cc3Cl)c(C(=O)NOCCO)cc21 [selumetinib, Selumetinib]
[1]; AZD6244 6.4e-6 uM
  SIMPL2 signal, WT (Fig. 3D): 117.981 and 128.314 and 91.3721 and 97.094
[1]; AZD6244 3.2e-5 uM
  SIMPL2 signal, WT (Fig. 3D): 96.8718 and 91.2055 and 86.3725 and 98.1494
[1]; AZD6244 0.00016 uM
  SIMPL2 signal, WT (Fig. 3D): 96.2607 and 97.2051 and 90.2055 and 118.204
[1]; AZD6244 0.0008 uM
  SIMPL2 signal, WT (Fig. 3D): 91.2055 and 95.2608 and 88.9279 and 100.427
[1]; AZD6244 0.004 uM
  SIMPL2 signal, WT (Fig. 3D): 91.5388 and 82.4283 and 71.7068 and 83.0949
[1]; AZD6244 0.02 uM
  SIMPL2 signal, WT (Fig. 3D): 79.8174 and 81.2062 and 88.8723 and 103.205
[1]; AZD6244 0.1 uM
  SIMPL2 signal, WT (Fig. 3D): 113.815 and 112.593 and 100.427 and 98.6494
[1]; AZD6244 0.5 uM
  SIMPL2 signal, WT (Fig. 3D): 103.76 and 101.094 and 97.3717 and 91.7054
[1]; doxycycline + compound 16 h
  inhibition of EGFR(WT)/SHC1 interaction signal: no effect
[2]; AZD6244 6.4e-6 uM
  SIMPL2 signal, L858R (Fig. 3D): 107.975 and 92.9525 and 107.024 and 103.355
[2]; AZD6244 3.2e-5 uM
  SIMPL2 signal, L858R (Fig. 3D): 88.2795 and 92.9261 and 92.1077 and 96.4375
[2]; AZD6244 0.00016 uM
  SIMPL2 signal, L858R (Fig. 3D): 108.688 and 85.5073 and 82.6824 and 92.9525
[2]; AZD6244 0.0008 uM
  SIMPL2 signal, L858R (Fig. 3D): 91.1572 and 94.7742 and 86.1145 and 84.24
[2]; AZD6244 0.004 uM
  SIMPL2 signal, L858R (Fig. 3D): 85.9825 and 79.039 and 94.0877 and 83.58
[2]; AZD6244 0.02 uM
  SIMPL2 signal, L858R (Fig. 3D): 89.8635 and 58.7628 and 116.819 and 92.2661
[2]; AZD6244 0.1 uM
  SIMPL2 signal, L858R (Fig. 3D): 96.4375 and 99.3416 and 96.3319 and 106.18
[2]; AZD6244 0.5 uM
  SIMPL2 signal, L858R (Fig. 3D): 85.5073 and 101.612 and 96.3583 and 99.632
[2]; doxycycline + compound 16 h
  effect on EGFR(L858R)/SHC1 interaction signal: no effect
[3]; 16 h with doxycycline
  induction of MDM2/MDM4 interaction: not observed
[3]; AZD6244 0.013717 uM
  SIMPL2 signal, MDM2/MDM4 (Fig. 4A): 105.342 and 94.3499 and 91.2095 and 111.623
[3]; AZD6244 0.041152 uM
  SIMPL2 signal, MDM2/MDM4 (Fig. 4A): 84.4799 and 83.2835 and 83.9564 and 94.7238
[3]; AZD6244 0.37037 uM
  SIMPL2 signal, MDM2/MDM4 (Fig. 4A): 85.1528 and 73.4882 and 95.2472 and 81.3394
[3]; AZD6244 1.11111 uM
  SIMPL2 signal, MDM2/MDM4 (Fig. 4A): 73.7125 and 92.2563 and 82.1619 and 85.5267
[3]; AZD6244 3.33333 uM
  SIMPL2 signal, MDM2/MDM4 (Fig. 4A): 70.0486 and 88.8915 and 67.3568 and 90.3869
[3]; AZD6244 10 uM
  SIMPL2 signal, MDM2/MDM4 (Fig. 4A): 78.4232 and 90.5365 and 82.0123 and 90.6113
[4]; AZD6244 6.4e-6 uM
  SIMPL2 signal, control (Fig. 3D): 109.596 and 130.088
[4]; AZD6244 3.2e-5 uM
  SIMPL2 signal, control (Fig. 3D): 98.632 and 104.891 and 97.5584 and 100.637
[4]; AZD6244 0.00016 uM
  SIMPL2 signal, control (Fig. 3D): 97.4795 and 101.781 and 98.0162 and 96.0508
[4]; AZD6244 0.0008 uM
  SIMPL2 signal, control (Fig. 3D): 100.171 and 103.684 and 97.3453 and 101.418
[4]; AZD6244 0.004 uM
  SIMPL2 signal, control (Fig. 3D): 92.396 and 92.6013 and 98.3715
[4]; AZD6244 0.02 uM
  SIMPL2 signal, control (Fig. 3D): 95.5614
[4]; AZD6244 0.1 uM
  SIMPL2 signal, control (Fig. 3D): 91.3936 and 91.141
[4]; AZD6244 0.5 uM
  SIMPL2 signal, control (Fig. 3D): 89.4044

From PMC11791039, “A split intein and split luciferase-coupled system for detecting protein-protein interactions” (Molecular Systems Biology, 2024)
